Read-outs that look alike come from different tables or passages of the source.
What was measured:
[1] = target: T1, Type II 5α-Reductase from Human Prostate (Homo sapiens, UniProt P31213); assay: Human Type II 5α-reductase assay (conversion of [3H]-testosterone to 5α-reduced metabolites); assay type: biochemical; details: for percent inhibition of Type II AR: 0.3 μM
T1 construct: The same procedure as above was used for preparations using tissue from prostate surgery; from tissue; host or cells: human prostate tissue from surgery, homogenate, 100,000×g pellet
T1 sequence (P31213 1-254): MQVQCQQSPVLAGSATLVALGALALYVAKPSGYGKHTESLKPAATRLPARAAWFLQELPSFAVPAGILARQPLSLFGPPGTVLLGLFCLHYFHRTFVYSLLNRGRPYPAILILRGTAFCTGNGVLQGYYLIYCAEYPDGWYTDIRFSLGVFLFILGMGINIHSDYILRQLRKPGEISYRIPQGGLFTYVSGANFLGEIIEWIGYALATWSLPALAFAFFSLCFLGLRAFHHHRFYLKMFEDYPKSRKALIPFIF

[2] = target: T2, Type I 5α-Reductase from Human Scalp (Homo sapiens, UniProt P18405); assay: Human Type I 5α-reductase assay (conversion of [3H]-testosterone to 5α-reduced metabolites); assay type: biochemical
T2 construct: Scalp punch biopsies from graft recipient sites were obtained from human hair transplant procedures; from tissue; host or cells: human scalp punch biopsies (hair transplant graft recipient sites), homogenate, 100,000×g pellet
T2 sequence (P18405 1-259): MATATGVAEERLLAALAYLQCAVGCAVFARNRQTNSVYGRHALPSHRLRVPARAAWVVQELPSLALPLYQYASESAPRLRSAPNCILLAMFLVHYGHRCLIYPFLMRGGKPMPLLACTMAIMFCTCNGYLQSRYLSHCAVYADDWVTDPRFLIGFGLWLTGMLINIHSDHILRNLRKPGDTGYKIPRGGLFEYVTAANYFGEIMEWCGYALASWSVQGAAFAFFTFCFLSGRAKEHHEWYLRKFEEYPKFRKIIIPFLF

[3] = pH 5.5, 0.3 μM, sodium acetate pH 5.5, 25°, 30 min, compared to control reaction mixtures, read-out: percent inhibition of Type II AR
[4] = pH 7.5, 0.3 μM, 50 nM [3H]-testosterone, pH 7.5, 25°, 180 min, compared to control reaction mixtures, read-out: percent inhibition of Type I AR
[5] = sodium acetate pH 5.5, 25°, 30 min, compared to control reaction mixtures

Compound | inhibition at 0.3 µM ([1]; pH 5.5, read-out: percent inhibition of Type II AR) [%] | inhibition at 0.3 µM ([2]; pH 7.5, read-out: percent inhibition of Type I AR) [%] | inhibition at 0.3 µM [1, 3] [%] | inhibition at 0.3 µM [2, 4] [%] | percent inhibition of Type II AR [1, 5] [%]
CN1C(=O)CC[C@]2(C)c3ccc(/C=C\c4ccccc4)cc3CC[C@@H]12 [Example 285, (4aR)-(10bR)-4,10b-dimethyl-8-(2-phenylethenyl)-1,2,3,4,4a,5,6,10b-octahydrobenzo[f]quinolin-3-one] | 36 | 93 |  |  | 
CNS(=O)(=O)c1ccc(-c2ccc3c(c2)CC[C@H]2N(C)C(=O)CC[C@]32C)cc1 [Example 123] |  |  | 27 | 10 | 
CN1C(=O)CC[C@]2(C)c3ccc(Sc4nc5ccccc5s4)cc3CC[C@@H]12 [Example 112, (4aR)-(10bR)-4,10b-dimethyl-8-(2-benzothiazolylthio)-1,2,3,4,4a,5,6,10b-octahydrobenzo[f]quinolin-3-one] |  |  | 90 | 64 | 92
CCCN(CC1CC1)c1ccc(-c2ccc3c(c2)CC[C@H]2N(C)C(=O)CC[C@]32C)c2ccccc12 [Example 68, (+)-(4aR)-(10bR)-4-methyl-8-(4-[N-propyl,N-cyclopropylmethylamino]-1-naphthyl)-10b-methyl-1,2,3,4,4a,5,6,10b-octahydrobenzo[f]quinolin-3-one] |  |  | 37 | 31 | 
CN1C(=O)CC[C@]2(C)c3ccc(-c4cccc(Cl)c4Cl)cc3CC[C@@H]12 [Example 73, (+)-(4aR)-(10bR)-4-methyl-8-(2,3-dichlorophenyl)-10b-methyl-1,2,3,4,4a,5,6,10b-octahydrobenzo[f]quinolin-3-one] |  |  | 16 | 87 | 
CN1C(=O)CC[C@]2(C)c3ccc(-c4cnc5ccccc5n4)cc3CC[C@@H]12 [Example 255, (+)-(4aR)-(10bR)-4-methyl-8-(2-quinoxalinyl)-10b-methyl-1,2,3,4,4a,5,6,10b-octahydrobenzo[f]quinolin-3-one] |  |  | 37 | 71 | 
CN1C(=O)CC[C@]2(C)c3ccc(-c4cccc(NC(c5ccccc5)c5ccccc5)c4)cc3CC[C@@H]12 [Example 272, (+)-(4aR)-(10bR)-4-methyl-8-(3-diphenylmethylaminophenyl)-10b-methyl-1,2,3,4,4a,5,6,10b-octahydrobenzo[f]quinolin-3-one] |  |  | 11 | 86 | 
Cc1cccc(Sc2ccc3c(c2)CC[C@H]2NC(=O)CC[C@]32C)c1 [Example 10, (+)-(4aR)-(10bR)-8-(3-methylphenylthio)-10b-methyl-1,2,3,4,4a,5,6,10b-octahydrobenzo[f]quinolin-3-one] |  |  | 40 | 22 | 
CCCCc1ccc(-c2ccc3c(c2)CC[C@H]2N(C)C(=O)CC[C@]32C)cc1 [Example 76, (+)-(4aR)-(10bR)-4-methyl-8-(4-n-butylphenyl)-10b-methyl-1,2,3,4,4a,5,6,10b-octahydrobenzo[f]quinolin-3-one] |  |  | 46 | 83 | 
CN1C(=O)CC[C@]2(C)c3ccc(-c4cc(C(F)(F)F)cc(C(F)(F)F)c4)cc3CC[C@@H]12 [Example 87, (+)-(4aR)-(10bR)-4-methyl-8-(3,5-his [trifluoromethyl]phenyl)-10b-methyl-1,2,3,4,4a,5,6,10b-octahydrobenzo[f]quinolin-3-one] |  |  | 28 | 83 | 
CN1C(=O)CC[C@]2(C)c3ccc(Sc4ccc5ccccc5c4)cc3CC[C@@H]12 [Example 98, (+)-(4aR)-(10bR)-4,10b-dimethyl-8-(2-naphthylthio)-1,2,3,4,-4a,5,6,10b-octahydrobenzo[f]quinolin-3-one] |  |  | 61 | 76 | 44
CN1C(=O)CC[C@]2(C)c3ccc(Sc4ncccc4[N+](=O)[O-])cc3CC[C@@H]12 [Example 167, (+)-(4aR)-(10bR)-4-methyl-8-(3-nitro-2-pyridinylthio)-10b-methyl-1,2,3,4,4a,5,6,10b-octahydrobenzo[f]quinolin-3-one] |  |  | 31 | 62 | 
CN1C(=O)CC[C@]2(C)c3ccc(-c4cccc(C(=O)NC5CCN(Cc6ccccc6)CC5)c4)cc3CC[C@@H]12 [Example 209, (+)-(4aR)-(10bR)-4-methyl-8-(3-[1-benzyl-4-piperidinylcarboxamido]phenyl)-10b-methyl-1,2,3,4,4a,5,6,10b-octahydrobenzo[f]quinolin-3-one] |  |  | 11 | 24 | 
CN1C(=O)CC[C@]2(C)c3ccc(Sc4nc5c(Br)cccc5s4)cc3CC[C@@H]12 [Example 183, (+)-(4aR)-(10bR)-4-methyl-8-(4-bromo-2-benzothiazolylthio)-10b-methyl-1,2,3,4,4a,5,6,10b-octahydrobenzo[f]quinolin-3-one] |  |  | 88 | 89 | 87
CCCN(CCC)[C@@H]1Cc2cc(-c3ccc4c(c3)CC[C@H]3N(C)C(=O)CC[C@]43C)cc3c2[C@@H](C1)CN3C(=O)c1ccccc1 [Example 225, (+)-(4aR)-(10bR)-4-methyl-8-(2aR,4S-1-benzoyl-4-dipropylamino-2,2a,3,4-tetrahydrobenz[cd]-1H-indol-7-yl)-10b-methyl-1,2,3,4,4a,5,6,10b-octahydrobenzo[f]quinolin-3-one] |  |  | 32 | 47 | 
CN1C(=O)CC[C@]2(C)c3ccc(-c4cccc5ncccc45)cc3CC[C@@H]12 [Example 240, (+)-(4aR)-(10bR)-4-methyl-8-(5-quinolinyl)-10b-methyl-1,2,3,4,4a,5,6,10b-octahydrobenzo[f]quinolin-3-one] |  |  | 17 | 55 | 
CN1C(=O)CC[C@]2(C)c3ccc(Sc4nnnn4-c4ccccc4)cc3CC[C@@H]12 [Example 154, (+)-(4aR)-(10bR)-4-methyl-8-(2-[3-phenyl]tetrazoylthio)-10b-methyl-1,2,3,4,4a,5,6,10b-octahydrobenzo[f]quinolin-3-one] |  |  | 25 | 56 | 
CN1C(=O)CC[C@]2(C)c3ccc(-c4nc5c(ccc6ccccc65)s4)cc3CC[C@@H]12 [Example 260, (+)-(4aR)-(10bR)-4-methyl-8-(2-naphtho<1,2-d>thiazolyl)-10b-methyl-1,2,3,4,4a,5,6,10b-octahydrobenzo[f]quinolin-3-one] |  |  | 40 | 84 | 
CN1C(=O)CC[C@]2(C)c3ccc(Sc4nc5cc(Cl)c(Cl)cc5s4)cc3CC[C@@H]12 [Example 165, (+)-(4aR)-(10bR)-4-methyl-8-(5,6-dichloro-2-benzothiazolylthio)-10b-methyl-1,2,3,4,4a,5,6,10b-octahydrobenzo[f]-quinolin-3-one] |  |  | 74 | 61 | 
CN1C(=O)CC[C@]2(C)c3ccc(-c4nc5ccccc5o4)cc3CC[C@@H]12 [Example 251, (+)-(4aR)-(10bR)-4-methyl-8-(2-benzoxazolyl)-10b-methyl-1,2,3,4,4a,5,6,10b-octahydrobenzo[f]quinolin-3-one] |  |  | 36 | 69 | 
CN1C(=O)CC[C@]2(C)c3ccc(CCc4ccc5ccccc5c4)cc3CC[C@@H]12 [Example 276, (+)-(4aR)-(10bR)-4-methyl-8-(2-[2-naphthyl]ethyl)-10b-methyl-1,2,3,4,4a,5,6,10b-octahydrobenzo[f]quinolin-3-one] |  |  | 33 | 92 | 

— patent US5622962A, “5α-reductase inhibitors” (priority 1995, dated 1997)
